Results from patent US11959122B2.

Tests used:
[1] = system: microbial flora in the target watershed (environmental microbes, resistant genes); conditions: logistic model fitting of S against concentration; target solution DNA
[2] = system: microbial flora in the target watershed; conditions: determined by EUCAST database; unit assumed; cited from earlier work
[3] = system: microbial flora in the target watershed; assay: minimum inhibitory concentration (MIC) by EUCAST database and drug resistance prediction invalid concentration PNECr; conditions: PNECR=MIC/AF, AF 10
From the text: Minimum inhibitory concentration (MIC) of some antibiotics and drug resistance prediction invalid concentration (PNECr) of microbes

[4] = buffer; cited from earlier work

Which “MSC value (antibiotic concentration at S=0)” value [1] does the source give for `CN(C)[C@@H]1C(O)=C(C(N)=O)C(=O)[C@@]2(O)C(O)=C3C(=O)c4c(O)cccc4[C@@](C)(O)[C@H]3C[C@@H]12` [Tetracycline] here?
Its value is roughly 11.39 µg/L.

Which results are given for Sulbactam sodium?
Observed MIC [2]: 250 µg/mL; PNECr [3]: 25

Which Observed MIC [2] does the source give for Fosfomycin here?
The Observed MIC was 125 µg/mL.

What about the PNECr [3] of the same compound?
Its PNECr is 12.5.

Which Observed MIC [2] does the source give for `CS(=O)(=O)c1ccc([C@@H](O)[C@@H](CO)NC(=O)C(Cl)Cl)cc1` [Thiamphenicol] here?
The Observed MIC was 500 µg/mL.

And the PNECr [3]?
The PNECr was 50.

Which Observed MIC [2] does the source give for Lincomycin here?
Its Observed MIC is 500 µg/mL.

And the PNECr [3]?
The PNECr was 50.

With `COC[C@H]1O[C@@H](OC2OC[C@@H]3O[C@]4(O[C@H]3[C@H]2OC(=O)C(C)C)O[C@H](C)[C@@](O)(C(C)=O)[C@@H]2OCO[C@H]24)[C@@H](OC)[C@@H](O)[C@@H]1O[C@@H]1O[C@H](C)[C@H](OC)[C@H](O[C@H]2C[C@@]3(C)OC4(C[C@@H](O)[C@H](O[C@H]5C[C@@H](O)[C@H](OC(=O)c6c(C)c(Cl)c(O)c(Cl)c6OC)[C@@H](C)O5)[C@@H](C)O4)O[C@@H]3[C@@H](C)O2)[C@H]1O` (some centres unmarked) [Avilamycin] as the compound, how does the Observed MIC [2] read?
Its Observed MIC is 1000 µg/mL.

What about the PNECr [3] of the same compound?
The PNECr was 100.

What does the source list for Colistin?
Observed MIC [2]: 64 µg/mL; PNECr [3]: 6.4

Which Observed MIC [2] does the source give for Sparfloxacin here?
The Observed MIC was 500 µg/mL.

And the PNECr [3]?
The PNECr was 50.

What does the source list for `CC1(C)S[C@@H]2[C@H](/N=C/N3CCCCCC3)C(=O)N2[C@H]1C(=O)O` [Messilinan]?
Observed MIC [2]: 64 µg/mL; PNECr [3]: 6.4

With Gentamicin as the compound, how does the Observed MIC [2] read?
The Observed MIC was 16 µg/mL.

What about the PNECr [3] of the same compound?
Its PNECr is 1.6.

Which Observed MIC [2] does the source give for `O=C1CN(/N=C/c2ccc([N+](=O)[O-])o2)C(=O)N1` [Furantoin] here?
Its Observed MIC is 4000 µg/mL.

And the PNECr [3]?
Its PNECr is 400.

With Tilmicosin as the compound, how does the Observed MIC [2] read?
Its Observed MIC is 250 µg/mL.

And the PNECr [3]?
Its PNECr is 25.

For Ethambutol, which Observed MIC [2] is on record?
Its Observed MIC is 1000 µg/mL.

What about the PNECr [3] of the same compound?
Its PNECr is 100.

Which results are given for Kanamycin?
Observed MIC [2]: 125 µg/mL; PNECr [3]: 12.5

With Quinupustine as the compound, how does the Observed MIC [2] read?
Its Observed MIC is 4 µg/mL.

What about the PNECr [3] of the same compound?
Its PNECr is 0.4.

With Nalidixic acid as the compound, how does the Observed MIC [2] read?
The Observed MIC was 500 µg/mL.

And the PNECr [3]?
Its PNECr is 50.

For Virginiamycin, which Observed MIC [2] is on record?
The Observed MIC was 250 µg/mL.

And the PNECr [3]?
The PNECr was 25.

For Spiramycin, which Observed MIC [2] is on record?
The Observed MIC was 2000 µg/mL.

And the PNECr [3]?
Its PNECr is 200.

Which results are given for `CN(C)[C@@H]1C(O)=C(C(N)=O)C(=O)[C@@]2(O)C(O)=C3C(=O)c4c(O)cccc4[C@@](C)(O)[C@H]3[C@H](O)[C@@H]12` [Oxytetracycline]?
Observed MIC [2]: 125 µg/mL; PNECr [3]: 12.5

Which Observed MIC [2] does the source give for Fusiform acid here?
The Observed MIC was 32 µg/mL.

What about the PNECr [3] of the same compound?
The PNECr was 3.2.

For Capreomycin, which Observed MIC [2] is on record?
The Observed MIC was 1000 µg/mL.

And the PNECr [3]?
Its PNECr is 100.

With Lolakabiv as the compound, how does the Observed MIC [2] read?
Its Observed MIC is 125 µg/mL.

And the PNECr [3]?
Its PNECr is 12.5.

For `NCC[C@H](O)C(=O)N[C@@H]1C[C@H](N)[C@@H](O[C@H]2O[C@H](CN)[C@@H](O)[C@H](O)[C@H]2O)[C@H](O)[C@H]1O[C@H]1O[C@H](CO)[C@@H](O)[C@H](N)[C@H]1O` [Amikacin], which Observed MIC [2] is on record?
The Observed MIC was 250 µg/mL.

And the PNECr [3]?
Its PNECr is 25.

With Linezolid as the compound, how does the Observed MIC [2] read?
Its Observed MIC is 125 µg/mL.

What about the PNECr [3] of the same compound?
The PNECr was 12.5.

For Teicoplanin, which Observed MIC [2] is on record?
The Observed MIC was 1000 µg/mL.

What about the PNECr [3] of the same compound?
The PNECr was 100.

What does the source list for Bacitracin?
Observed MIC [2]: 2000 µg/mL; PNECr [3]: 200

For Cefadroxil, which Observed MIC [2] is on record?
The Observed MIC was 125 µg/mL.

What about the PNECr [3] of the same compound?
The PNECr was 12.5.

With Neomycin as the compound, how does the Observed MIC [2] read?
The Observed MIC was 125 µg/mL.

What about the PNECr [3] of the same compound?
Its PNECr is 12.5.

Which “t1/2” value [4] does the source give for Dehydrated erythromycin here?
Its value is 365 days.
